Laboratory results taken from patent publication US11059786B2, “Aminopyridine compounds and methods for the preparation and use thereof” (Cortexyme, Inc., priority 2017, dated 2021).

Tests used:
[1] = in vivo, po; cited from earlier work
RgpB = target: T1, RgpB (Porphyromonas gingivalis, UniProt P95493); experiment: RgpB inhibition, fluorogenic assay; type: biochemical; details: Activity (RgpB IC50), 0.02 nM RgpB, 10 μM Boc-Phe-Ser-Arg-MCA, 90 minutes, 37° C., pH=7.5
T1 construct: 0.02 nM RgpB, isolated from culture of Porphyromonas gingivalis; endogenous in cells
Description: The capacities of compounds of the present invention to inhibit the activity of RgpB were measured in a fluorogenic assay similar to those described in Barret Biochemical Journal. 1980, 187(3), 909. The specific assay conditions were as follows. Buffer: pH=7.5, 100 mM Tris-HCl, 75 mM NaCl, 2.5 mM CaCl2, 10 mM cysteine, 1% DMSO after all additions. Protein: 0.02 nM RgpB, isolated from culture of Porphyromonas gingivalis, as described in Pike et al. J. Biol. Chem. 1994, 269(1), 406, and Potempa and Nguyen. Current Protocols in Protein Scienc. 2007, 21.20.1-21.20.27. Fluorogenic substrate: 10 μM Boc-Phe-Ser-Arg-MCA. Time=90 minutes. Temperature=37° C. Each compound: 10 concentrations, starting at either 100 μM or 100 nM, with lower concentrations generated by serial 3-fold dilutions. By testing a range of concentrations for each compound, the concentration required to inhibit the activity of RgpB by 50% (the “IC50”) was determined.

T1 sequence (P95493 230-664): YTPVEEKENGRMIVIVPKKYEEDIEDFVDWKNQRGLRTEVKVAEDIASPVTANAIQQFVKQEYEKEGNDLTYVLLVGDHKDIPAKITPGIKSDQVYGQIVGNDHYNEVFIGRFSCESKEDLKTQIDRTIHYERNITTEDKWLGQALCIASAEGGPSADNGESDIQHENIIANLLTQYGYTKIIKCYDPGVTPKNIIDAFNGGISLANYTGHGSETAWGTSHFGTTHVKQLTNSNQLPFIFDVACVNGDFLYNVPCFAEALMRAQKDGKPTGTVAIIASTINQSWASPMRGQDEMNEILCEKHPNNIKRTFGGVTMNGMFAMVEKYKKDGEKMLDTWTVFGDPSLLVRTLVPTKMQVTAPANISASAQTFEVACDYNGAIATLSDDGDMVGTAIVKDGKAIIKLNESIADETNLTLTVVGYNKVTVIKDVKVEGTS

Which half-life [1] does the source give for `CN(NC(=O)CC[C@H](NC(=O)OCc1ccccc1)C(=O)N[C@@H](CCCCN)C(=O)C(=O)NCc1ccccc1)c1ccccc1` [Kyt-36] here?
Its half-life is “increases the half-life”.

For `CC(COc1ccnc(N)c1)N(C)C#N` (centres unmarked) [Compound 14, N-(1-((2-aminopyridin-4-yl)oxy)propan-2-yl)-N-methylcyanamide], which IC50 (RgpB) is on record?
The IC50 was 0.1 to 1 µM.

With `Nc1ccc(CC(NC(=O)C2CCCC2)C(=O)COc2c(F)c(F)cc(F)c2F)cn1` (centres unmarked) [Compound 53, N-(1-(6-aminopyridin-3-yl)-3-oxo-4-(2,3,5,6-tetrafluorophenoxy)butan-2-yl)cyclopentanecarboxamide] as the compound, how does the IC50 (RgpB) read?
Its IC50 is under 0.1 µM.

With `COC(C)(C)C(=O)NC(Cc1ccc(N)nc1)C(=O)COc1c(F)cccc1F` (centres unmarked) [Compound 58, N-(1-(6-aminopyridin-3-yl)-4-(2,6-difluorophenoxy)-3-oxobutan-2-yl)-2-methoxy-2-methylpropanamide] as the compound, how does the IC50 (RgpB) read?
The IC50 was 0.1 to 1 µM.

Which IC50 (RgpB) does the source give for `N#CN1CCC[C@H]1c1ccc2c(N)nccc2c1` [Compound 44, (S)-2-(1-aminoisoquinolin-6-yl)pyrrolidine-1-carbonitrile] here?
The IC50 was 0.1 to 1 µM.

Which IC50 (RgpB) does the source give for `Cc1cnc(N)cc1OC[C@@H]1CCCN1C#N` [Compound 29, (S)-2-(((2-amino-5-methylpyridin-4-yl)oxy)methyl)pyrrolidine-1-carbonitrile] here?
Its IC50 is 10 to 100 µM.

With `CC(C)C(COc1ccnc(N)c1)N(C)C#N` (centres unmarked) [Compound 34, N-(1-((2-aminopyridin-4-yl)oxy)-3-methylbutan-2-yl)-N-methylcyanamide] as the compound, how does the IC50 (RgpB) read?
Its IC50 is 1 to 10 µM.

Which IC50 (RgpB) does the source give for `COC(C)(C)C(=O)NC(Cc1ccnc(N)c1)C(=O)COc1ccon1` (centres unmarked) [Compound 63, N-(1-(2-aminopyridin-4-yl)-4-(isoxazol-3-yloxy)-3-oxobutan-2-yl)-2-methoxy-2-methylpropanamide] here?
The IC50 was 1 to 10 µM.

For `N#CN1CCCC1c1ccc2c(N)nccc2c1` (centres unmarked) [Compound 45, 2-(1-aminoisoquinolin-6-yl)pyrrolidine-1-carbonitrile], which IC50 (RgpB) is on record?
The IC50 was under 0.1 µM.

With `N#CN1CCC[C@H]1/C=C/c1ccnc(N)c1` [Compound 32, (S,E)-2-(2-(2-aminopyridin-4-yl)vinyl)pyrrolidine-1-carbonitrile] as the compound, how does the IC50 (RgpB) read?
The IC50 was 0.1 to 1 µM.

Which IC50 (RgpB) does the source give for `CN(C#N)Cc1cc2c(N)nccc2o1` [Compound 4, N-((4-aminofuro[3,2-c]pyridin-2-yl)methyl)-N-methylcyanamide] here?
Its IC50 is 10 to 100 µM.

For `CN(C#N)Cc1ccc2c(N)nccc2c1` [Compound 26, N-((1-aminoisoquinolin-6-yl)methyl)-N-methylcyanamide], which IC50 (RgpB) is on record?
Its IC50 is 0.1 to 1 µM.

Which IC50 (RgpB) does the source give for `N#CN1CCC[C@H]1CSc1ccnc(N)c1` [Compound 28, (S)-2-(((2-aminopyridin-4-yl)thio)methyl)pyrrolidine-1-carbonitrile] here?
The IC50 was 1 to 10 µM.

Which IC50 (RgpB) does the source give for `Nc1ccc(C[C@H](NC(=O)C2CCCC2)C(=O)COc2c(F)c(F)cc(F)c2F)cn1` [Compound 56, (S)—N-(1-(6-aminopyridin-3-yl)-3-oxo-4-(2,3,5,6-tetrafluorophenoxy)butan-2-yl)cyclopentanecarboxamide] here?
Its IC50 is under 0.1 µM.
